# Experiments:
# [1] = tested on: 12Rd-4 (RNA, aptamer) GGGACACAAUGGACGGGCACAAGGUCCCACCAUCUCAGACGAGAAAGGAUACGCAGAUCGGCGAAUAACGGCCGACAUGAGAG; test: phosphorescence titration; conditions: 100 mM NaCl, 5 mM MgCl2; 20 mM HEPES pH 7.0; 1 μM compound, RNA up to 10 μM
# [2] = tested on: 12Rd-3 (RNA, aptamer) GGGACACAAUGGACGUGGGGCUACAGACCAUCCGUUCUAUCCCGAGCACCGGGCCAAUCUCAAGUUAACGGCCGACAUGAGAG; test: phosphorescence titration; conditions: 100 mM NaCl, 5 mM MgCl2; 20 mM HEPES pH 7.0; 1 μM compound, RNA up to 10 μM
# [3] = tested on: Δ 31@3 (RNA, aptamer) GGGACACAAUGGACGAUCAUAUAACGAUAGCACUGGCGUAGGGAGACUACGU; test: phosphorescence titration; conditions: 100 mM NaCl, 5 mM MgCl2; 20 mM HEPES pH 7.0; 1 μM compound, RNA up to 10 μM
# [4] = tested on: Δ 15@3' (RNA, aptamer) GGGACACAAUGGACGAUCAUAUAACGAUAGCACUGGCGUAGGGAGACUACGUGUCCGUGUGUACCUAA; test: phosphorescence titration; conditions: 100 mM NaCl, 5 mM MgCl2; 20 mM HEPES pH 7.0; 1 μM compound, RNA 1 to 10 μM
# [5] = tested on: Δ Hairpin loop2 (RNA, aptamer) GGGAUGGACGAUCAUAUAACGAUAGCACUGGUGUCCGU; test: phosphorescence titration; conditions: 100 mM NaCl, 5 mM MgCl2; 20 mM HEPES pH 7.0; 1 μM compound, RNA up to 10 μM
# [6] = tested on: 2'-F aptamer (RNA, aptamer, 2'-F RNA (DuraScribe T7 transcription; modified positions not stated)) GGGAUGGACGAUCAUAUAACGAUAGCACUGGCGUAGGGAGACUACGUGUCCGU; test: phosphorescence titration; conditions: 100 mM NaCl, 5 mM MgCl2; 20 mM HEPES pH 7.0; 1 μM compound, RNA up to 10 μM
# [7] = tested on: 12Rd-1 (RNA, aptamer) GGGACACAAUGGACGGUACGUAUUGCGUGGGACCCCGCGCAAUGAACUGGCCGAGGGAGACUCGGUAACGGCCGACAUGAGAG; test: phosphorescence titration; conditions: 100 mM NaCl, 5 mM MgCl2; 20 mM HEPES pH 7.0; 1 μM compound, RNA 1 to 10 μM
# [8] = tested on: Δ 25@3' (RNA, aptamer) GGGACACAAUGGACGAUCAUAUAACGAUAGCACUGGCGUAGGGAGACUACGUGUCCGU; test: phosphorescence titration; conditions: 100 mM NaCl, 5 mM MgCl2; 20 mM HEPES pH 7.0; 1 μM compound, RNA 1 to 10 μM
# [9] = tested on: Δ Hairpin loop1 (RNA, aptamer) GGGAUGGACGAUAGCACUGGCGUAGGGAGACUACGUGUCCGU; test: phosphorescence titration; conditions: 100 mM NaCl, 5 mM MgCl2; 20 mM HEPES pH 7.0; 1 μM compound, RNA up to 10 μM
# [10] = tested on: 12Rd-2 (RNA, aptamer) GGGACACAAUGGACGGCAGAUCUGAGAGGGGAAGACCCUUUGUUAUUAACGAACUUGCGGUAUGAUAACGGCCGACAUGAGAG; test: phosphorescence titration; conditions: 100 mM NaCl, 5 mM MgCl2; 20 mM HEPES pH 7.0; 1 μM compound, RNA 1 to 10 μM
# [11] = tested on: Δ Loop2 (RNA, aptamer) GGGAUGGACGAUCAUAUAACGAUAGCGUAGGGAGACUACGUGUCCGU; test: phosphorescence titration; conditions: 100 mM NaCl, 5 mM MgCl2; 20 mM HEPES pH 7.0; 1 μM compound, RNA up to 10 μM
# [12] = tested on: Ru(bpy)3^2+ aptamer (Δ 25@3', Δ 5@5'; 53 nt) (RNA, aptamer) GGGAUGGACGAUCAUAUAACGAUAGCACUGGCGUAGGGAGACUACGUGUCCGU; test: phosphorescence titration; conditions: 100 mM NaCl, 5 mM MgCl2; 20 mM HEPES pH 7.0; 1 μM compound, RNA 1 to 10 μM
# [13] = tested on: Ru(bpy)3^2+ aptamer (Δ 25@3', Δ 5@5'; 53 nt) (RNA, aptamer) GGGAUGGACGAUCAUAUAACGAUAGCACUGGCGUAGGGAGACUACGUGUCCGU; test: ITC; conditions: Na+ (phosphate-buffered saline, concentration not stated); PBS (Takara T900); 5 μM aptamer in cell, 50 μM compound in syringe
# [14] = tested on: 12Rd-5 (RNA, aptamer) GGGACACAAUGGACGAUCAUAUAACGAUAGCACUGGCGUAGGGAGACUACGUGUCCGUGUGUACCUAACGGCCGACAUGAGAG; test: phosphorescence titration; conditions: 100 mM NaCl, 5 mM MgCl2; 20 mM HEPES pH 7.0; 1 μM compound, RNA 1 to 10 μM
smiles,measurement,setting,value
[Ru+2].c1ccc(-c2ccccn2)nc1.c1ccc(-c2ccccn2)nc1.c1ccc(-c2ccccn2)nc1,binding,[1],no
same,binding,[2],no
same,binding,[3],no
same,binding,[4],yes
same,binding,[5],no
same,binding,[6],no
same,Kd,[7],1600 nM
same,binding,[8],yes
same,binding,[9],no
same,Kd,[10],1000 nM
same,binding,[11],no
same,binding,[12],yes
same,Kd,[13],65 nM
same,binding,[13],no
same,Kd,[14],118 ± 90 nM

# — publication PMC5324105 (2017)
